From PubChem BioAssay (NCI)
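Cultured in 96-well plates, cells were exposed to test compound for 48 hours across five concentrations. Here, GI50 denotes the concentration required for 50% inhibition of growth. TGI: total growth inhibition.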

Assays:
Assay in all cases: NCI tumour cell line growth inhibition, 48 h
KM12 colon = test system: KM12 colon
NCI/ADR-RES ovarian = test system: NCI/ADR-RES ovarian
LOX IMVI melanoma = test system: LOX IMVI melanoma
K-562 leukemia = test system: K-562 leukemia
BT-549 breast = test system: BT-549 breast
U251 CNS = test system: U251 CNS
SNB-19 CNS = test system: SNB-19 CNS
UACC-62 melanoma = test system: UACC-62 melanoma
HT29 colon = test system: HT29 colon
A498 renal = test system: A498 renal
HCT-15 colon = test system: HCT-15 colon
SF-539 CNS = test system: SF-539 CNS
RXF 393 renal = test system: RXF 393 renal
TK-10 renal = test system: TK-10 renal
HCT-116 colon = test system: HCT-116 colon
SK-OV-3 ovarian = test system: SK-OV-3 ovarian
OVCAR-8 ovarian = test system: OVCAR-8 ovarian
NCI-H23 lung = test system: NCI-H23 lung
MCF7 breast = test system: MCF7 breast
M14 melanoma = test system: M14 melanoma
HL-60(TB) leukemia = test system: HL-60(TB) leukemia
SW-620 colon = test system: SW-620 colon
UO-31 renal = test system: UO-31 renal
NCI-H460 lung = test system: NCI-H460 lung
MALME-3M melanoma = test system: MALME-3M melanoma
T-47D breast = test system: T-47D breast
SNB-75 CNS = test system: SNB-75 CNS
DU-145 prostate = test system: DU-145 prostate
IGROV1 ovarian = test system: IGROV1 ovarian
SR leukemia = test system: SR leukemia
NCI-H522 lung = test system: NCI-H522 lung
ACHN renal = test system: ACHN renal
MOLT-4 leukemia = test system: MOLT-4 leukemia
HS 578T breast = test system: HS 578T breast
HOP-92 NSCLC = test system: HOP-92 NSCLC
SF-268 CNS = test system: SF-268 CNS
MDA-MB-231 breast = test system: MDA-MB-231 breast
SK-MEL-5 melanoma = test system: SK-MEL-5 melanoma
OVCAR-4 ovarian = test system: OVCAR-4 ovarian
UACC-257 melanoma = test system: UACC-257 melanoma
CAKI-1 renal = test system: CAKI-1 renal
COLO 205 colon = test system: COLO 205 colon
NCI-H226 lung = test system: NCI-H226 lung
SK-MEL-2 melanoma = test system: SK-MEL-2 melanoma
SK-MEL-28 melanoma = test system: SK-MEL-28 melanoma
PC-3 prostate = test system: PC-3 prostate
RPMI-8226 leukemia = test system: RPMI-8226 leukemia
SF-295 CNS = test system: SF-295 CNS
MDA-MB-435 = test system: MDA-MB-435
OVCAR-3 ovarian = test system: OVCAR-3 ovarian
EKVX NSCLC = test system: EKVX NSCLC
SN12C renal = test system: SN12C renal
786-0 renal = test system: 786-0 renal
CCRF-CEM leukemia = test system: CCRF-CEM leukemia
OVCAR-5 ovarian = test system: OVCAR-5 ovarian
HOP-62 NSCLC = test system: HOP-62 NSCLC
A549 NSCLC = test system: A549 NSCLC
HCC-2998 colon = test system: HCC-2998 colon

SMILES: O=C(Nc1ccc(-n2ccc3c(NC(=O)c4ccccc4)ncnc32)cc1)c1ccc(Cl)c(C(F)(F)F)c1
- GI50 (KM12 colon): 0.939 µM
- TGI (KM12 colon): 7.71 µM
- GI50 (NCI/ADR-RES ovarian): 3.1 µM
- TGI (NCI/ADR-RES ovarian): 23.5 µM
- GI50 (LOX IMVI melanoma): 0.321 µM
- TGI (LOX IMVI melanoma): 3.71 µM
- GI50 (K-562 leukemia): 0.42 µM
- TGI (K-562 leukemia): > 35 µM
- GI50 (BT-549 breast): 15.1 µM
- TGI (BT-549 breast): 48.8 µM
- GI50 (U251 CNS): 0.462 µM
- TGI (U251 CNS): 5.75 µM
- GI50 (SNB-19 CNS): 4.21 µM
- TGI (SNB-19 CNS): 17.8 µM
- GI50 (UACC-62 melanoma): 0.947 µM
- TGI (UACC-62 melanoma): 12.2 µM
- GI50 (HT29 colon): 0.752 µM
- TGI (HT29 colon): 6.16 µM
- GI50 (A498 renal): 13 µM
- TGI (A498 renal): 29.4 µM
- GI50 (HCT-15 colon): 0.116 µM
- TGI (HCT-15 colon): 6.77 µM
- GI50 (SF-539 CNS): 3.63 µM
- TGI (SF-539 CNS): > 54.7 µM
- GI50 (RXF 393 renal): 4.74 µM
- TGI (RXF 393 renal): 15.4 µM
- GI50 (TK-10 renal): 5.17 µM
- TGI (TK-10 renal): 12.9 µM
- GI50 (HCT-116 colon): 0.536 µM
- TGI (HCT-116 colon): 7.26 µM
- GI50 (SK-OV-3 ovarian): 11.1 µM
- TGI (SK-OV-3 ovarian): 25.5 µM
- GI50 (OVCAR-8 ovarian): 2.1 µM
- GI50 (NCI-H23 lung): 13.1 µM
- TGI (NCI-H23 lung): 40.7 µM
- GI50 (MCF7 breast): 1.91 µM
- TGI (MCF7 breast): 15.6 µM
- GI50 (M14 melanoma): 1.37 µM
- TGI (M14 melanoma): 9.47 µM
- GI50 (HL-60(TB) leukemia): 4.99 µM
- TGI (HL-60(TB) leukemia): > 52.8 µM
- GI50 (SW-620 colon): 1.29 µM
- TGI (SW-620 colon): 6.21 µM
- GI50 (UO-31 renal): 7.13 µM
- TGI (UO-31 renal): 23.7 µM
- GI50 (NCI-H460 lung): 0.204 µM
- TGI (NCI-H460 lung): 4.8 µM
- GI50 (MALME-3M melanoma): 6.41 µM
- TGI (MALME-3M melanoma): 21.2 µM
- GI50 (T-47D breast): 2.9 µM
- TGI (T-47D breast): 13.8 µM
- GI50 (SNB-75 CNS): 1.55 µM
- TGI (SNB-75 CNS): 11.4 µM
- GI50 (DU-145 prostate): 1.48 µM
- TGI (DU-145 prostate): 8.46 µM
- GI50 (IGROV1 ovarian): 5.81 µM
- TGI (IGROV1 ovarian): 31 µM
- GI50 (SR leukemia): 0.145 µM
- TGI (SR leukemia): > 20.1 µM
- GI50 (NCI-H522 lung): 3.02 µM
- TGI (NCI-H522 lung): 13.3 µM
- GI50 (ACHN renal): 1.28 µM
- TGI (ACHN renal): 15.2 µM
- GI50 (MOLT-4 leukemia): 1.38 µM
- TGI (MOLT-4 leukemia): > 32 µM
- GI50 (HS 578T breast): 4.96 µM
- TGI (HS 578T breast): 15.6 µM
- GI50 (HOP-92 NSCLC): 8.16 µM
- TGI (HOP-92 NSCLC): 25.7 µM
- GI50 (SF-268 CNS): 2.17 µM
- TGI (SF-268 CNS): 15.2 µM
- GI50 (MDA-MB-231 breast): 1.93 µM
- TGI (MDA-MB-231 breast): 11.5 µM
- GI50 (SK-MEL-5 melanoma): 0.603 µM
- TGI (SK-MEL-5 melanoma): 15.1 µM
- GI50 (OVCAR-4 ovarian): 2.63 µM
- TGI (OVCAR-4 ovarian): 9.42 µM
- GI50 (UACC-257 melanoma): 5.17 µM
- TGI (UACC-257 melanoma): 24.5 µM
- GI50 (CAKI-1 renal): 0.83 µM
- TGI (CAKI-1 renal): 11.1 µM
- GI50 (COLO 205 colon): 2.46 µM
- TGI (COLO 205 colon): 17.2 µM
- GI50 (NCI-H226 lung): 6.58 µM
- TGI (NCI-H226 lung): 25.1 µM
- GI50 (SK-MEL-2 melanoma): 2.36 µM
- TGI (SK-MEL-2 melanoma): 8.68 µM
- GI50 (SK-MEL-28 melanoma): 4.9 µM
- TGI (SK-MEL-28 melanoma): 15.3 µM
- GI50 (PC-3 prostate): 3.57 µM
- TGI (PC-3 prostate): 14.7 µM
- GI50 (RPMI-8226 leukemia): 1.63 µM
- TGI (RPMI-8226 leukemia): 29 µM
- GI50 (SF-295 CNS): 1.91 µM
- TGI (SF-295 CNS): 20 µM
- GI50 (MDA-MB-435): 2.12 µM
- TGI (MDA-MB-435): 10.3 µM
- GI50 (OVCAR-3 ovarian): 3.44 µM
- TGI (OVCAR-3 ovarian): 9.37 µM
- GI50 (EKVX NSCLC): 5.66 µM
- TGI (EKVX NSCLC): 25.4 µM
- GI50 (SN12C renal): 3.8 µM
- TGI (SN12C renal): 16.5 µM
- GI50 (786-0 renal): 5.02 µM
- TGI (786-0 renal): 23.6 µM
- GI50 (CCRF-CEM leukemia): 0.849 µM
- TGI (CCRF-CEM leukemia): 18.2 µM
- GI50 (OVCAR-5 ovarian): 3.87 µM
- TGI (OVCAR-5 ovarian): 22.5 µM
- GI50 (HOP-62 NSCLC): 3.45 µM
- TGI (HOP-62 NSCLC): 11.2 µM
- GI50 (A549 NSCLC): 1.84 µM
- TGI (A549 NSCLC): 12.6 µM
- GI50 (HCC-2998 colon): 4.5 µM
- TGI (HCC-2998 colon): 23.5 µM
